target: TNFα trimer (Homo sapiens, UniProt P01375); assay: TNFα FP Competitive Binding Assay; details: FP binding assay; 20 nM TNFα trimer, 1 nM OregonGreen488 probe; read-out: TNF IC50
Outline: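 Fluorescence polarization competition: 20 nM TNFα trimer with 1 nM fluorescein-labelled probe in HEPES/NaCl/EDTA/Triton X-100 buffer, compound in 12-point 1:3 dilutions (final top 338 μM or 100 μM). Incubated 18-24 h, background-subtracted mP read, variable-slope dose-response fitting.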

Sequence of TNFα trimer (P01375 77-233 limits assumed): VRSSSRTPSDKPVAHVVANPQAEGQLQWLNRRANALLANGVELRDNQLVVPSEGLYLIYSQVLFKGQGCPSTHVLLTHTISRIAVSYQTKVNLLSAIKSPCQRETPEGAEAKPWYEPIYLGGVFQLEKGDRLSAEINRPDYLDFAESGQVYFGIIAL

Compound	IC50 [µM]
Cn1c(=O)c2ccc(-c3cnc(C(C)(C)O)nc3)cc2n1Cc1cc(NCC(C)(C)O)ccc1Cl [Example 122, 1-(2-Chloro-5-((2-hydroxy-2-methylpropyl)amino)benzyl)-6-(2-(2-hydroxypropan-2-yl)pyrimidin-5-yl)-2-methyl-1H-indazol-3(2H)-one]	1 to 10
Cn1cc(Cn2c3cc(-c4cnc(N5CCN6C(=O)NC[C@H]6C5)nc4)ccc3c(=O)n2C)c(C(F)(F)F)c1 [Example 123, (S)-7-(5-(2-Methyl-1-((1-methyl-4-(trifluoromethyl)-1H-pyrrol-3-yl)methyl)-3-oxo-2,3-dihydro-1H-indazol-6-yl)pyrimidin-2-yl)hexahydroimidazo[1,5-a]pyrazin-3(2H)-one]	< 1
Cc1ccc(OC(F)F)c(Cn2c3cc(-c4cnc(C(C)C)nc4)ccc3c(=O)n2C)c1 [Example 124, 1-(2-(Difluoromethoxy)-5-methylbenzyl)-6-(2-isopropylpyrimidin-5-yl)-2-methyl-1H-indazol-3(2H)-one]	< 1
Cn1c(=O)c2ccc(-c3cnc(C(C)(C)O)nc3)cc2n1Cc1cc(N2CCOCC2)ccc1OC(F)F [Example 125, 1-(2-(Difluoromethoxy)-5-morpholinobenzyl)-6-(2-(2-hydroxypropan-2-yl)pyrimidin-5-yl)-2-methyl-1H-indazol-3(2H)-one]	1 to 10
C[C@@H]1CN(C(=O)CO)CCN1c1ncc(-c2cc3c(cc2F)c(=O)n(C)n3Cc2ccccc2OC(F)F)cn1 [Example 126, (R)-1-(2-(Difluoromethoxy)benzyl)-5-fluoro-6-(2-(4-(2-hydroxyacetyl)-2-methylpiperazin-1-yl)pyrimidin-5-yl)-2-methyl-1H-indazol-3(2H)-one]	< 1
Cn1c(=O)c2ccc(-c3cnc(C(C)(C)O)nc3)cc2n1Cc1cn(Cc2cccnc2)cc1C(F)(F)F [Example #127]	< 1
Cn1c(=O)c2ccc(-c3cnc(C(C)(C)O)nc3)cc2n1Cc1cn(Cc2ccnnc2)cc1C(F)(F)F [Example #128, 6-(2-(2-Hydroxypropan-2-yl)pyrimidin-5-yl)-2-methyl-1-((1-(pyridazin-4-ylmethyl)-4-(trifluoromethyl)-1H-pyrrol-3-yl)methyl)-1H-indazol-3(2H)-one]	1 to 10
CC(=O)N1CCN(c2ncc(-c3ccc4c(=O)n(C)n(Cc5cc(CN6CCN(C)C6=O)ccc5OC(F)F)c4c3)cn2)C[C@H]1C [Example #129*, (R)-6-(2-(4-Acetyl-3-methylpiperazin-1-yl)pyrimidin-5-yl)-1-(2-(difluoromethoxy)-5-((3-methyl-2-oxoimidazolidin-1-yl)methyl)benzyl)-2-methyl-1H-indazol-3(2H)-one]	1 to 10
COc1c[nH]nc1Cn1cc(Cn2c3cc(-c4cnc(C(C)(C)O)nc4)ccc3c(=O)n2C)c(C(F)(F)F)c1 [Example #130, 6-(2-(2-Hydroxypropan-2-yl)pyrimidin-5-yl)-1-((1-((4-methoxy-1H-pyrazol-3-yl)methyl)-4-(trifluoromethyl)-1H-pyrrol-3-yl)methyl)-2-methyl-1H-indazol-3(2H)-one]	< 1
Cc1ccc(OC(F)F)c(Cn2c3cc(C4=CCC(C(C)O)OC4)c(F)cc3c(=O)n2C)c1 (centres unmarked) [Example #131, 1-(2-(Difluoromethoxy)-5-methylbenzyl)-5-fluoro-6-(6-(1-hydroxyethyl)-5,6-dihydro-2H-pyran-3-yl)-2-methyl-1H-indazol-3(2H)-one]	< 1
Cc1ccc(OC(F)F)c(Cn2c3cc(C4=CCC(C(C)(C)O)OC4)c(F)cc3c(=O)n2C)c1 (centres unmarked) [Example #132, 1-(2-(Difluoromethoxy)-5-methylbenzyl)-5-fluoro-6-(6-(2-hydroxypropan-2-yl)-5,6-dihydro-2H-pyran-3-yl)-2-methyl-1H-indazol-3(2H)-one]	< 1
Cn1c(=O)c2ccc(-c3cnc(C(C)(C)O)nc3)cc2n1Cc1cc(Cc2ccn[nH]2)ccc1OC(F)F [Example #133, 1-(5-((1H-Pyrazol-5-yl)methyl)-2-(difluoromethoxy)benzyl)-6-(2-(2-hydroxypropan-2-yl)pyrimidin-5-yl)-2-methyl-1H-indazol-3(2H)-one]	< 1
CC(=O)N1CCN(c2ncc(-c3ccc4c(=O)n(Cc5cccc(C#N)c5)n(Cc5ccccc5Cl)c4c3)cn2)C[C@H]1C [Example #134*, (R)-3-((6-(2-(4-Acetyl-3-methylpiperazin-1-yl)pyrimidin-5-yl)-1-(2-chlorobenzyl)-3-oxo-1H-indazol-2(3H)-yl)methyl)benzonitrile]	1 to 10
Cc1ccc(OC(F)F)c(Cn2c3cc(-c4cnn5c(C(C)(C)O)cnc5c4)ccc3c(=O)n2C)c1 [Example #135, 1-(2-(Difluoromethoxy)-5-methylbenzyl)-6-(3-(2-hydroxypropan-2-yl)imidazo[1,2-b]pyridazin-7-yl)-2-methyl-1H-indazol-3(2H)-one]	< 1

Reference: US10160748B2 (AbbVie Inc., priority 2015, dated 2018)
